Literature values in EP0836475B1, “CONTROLLED RELEASE FORMULATIONS FOR POORLY SOLUBLE DRUGS” (ELAN CORPORATION, Plc, priority 1995, dated 1997).

Conditions: ibuprofen from Lutrol-F68

For `CC(C)Cc1ccc(C(C)C(=O)O)cc1` (stereo not shown) [ibuprofen], the “T50 value of in vitro release” value is given as “approximately 30 min”.
